Laboratory results reported in patent US8518952B2, “6 substituted 2-heterocyclylamino pyrazine compounds as CHK-1 inhibitors” (Pfizer Inc., priority 2008, dated 2013).
Structures can show the parent of a compound that is named as a salt.

Columns and labels:
CHK1 (kinase domain) = biological target: T1, CHK1 (kinase domain) (Homo sapiens, UniProt O14757); assay: CHK1 Ki determination, spectrophotometric coupled (pyruvate kinase/lactate dehydrogenase) assay; type: biochemical; conditions: CHK-1 kinase domain; 150 uM ATP, 125 uM Syntide 2
T1 construct: a solution containing 1 nM of CHK1 (kinase domain)
T1 sequence (O14757 9-265 limits assumed): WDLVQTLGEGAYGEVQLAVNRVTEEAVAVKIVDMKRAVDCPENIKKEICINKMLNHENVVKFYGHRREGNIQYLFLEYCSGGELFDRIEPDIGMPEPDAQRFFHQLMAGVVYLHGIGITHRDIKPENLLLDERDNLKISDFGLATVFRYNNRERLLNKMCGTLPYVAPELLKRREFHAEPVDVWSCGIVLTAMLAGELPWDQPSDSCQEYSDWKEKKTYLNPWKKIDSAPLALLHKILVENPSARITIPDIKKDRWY
How it was run: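 The CHK1 kinase domain was pre-incubated with compound for 15 min, and the reaction was started with 125 uM Syntide 2 and 150 uM ATP. ADP formation was coupled through pyruvate kinase/lactate dehydrogenase to NADH oxidation, read as the A340 decrease. Kiapp was fitted with a tight-binding equation that accounts for enzyme concentration and ATP Km; some entries are % inhibition.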

Mia Paca-2 cells = assay: Histone H3 (Ser10) phosphorylation ELISA, abrogation of camptothecin-induced G2 arrest (CHK-1 cellular assay); type: cell-based; conditions: camptothecin 8 hrs, then compound with nocodozole 16 hours
How it was run: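 HeLa cells, or Mia Paca-2 where marked, were damaged with camptothecin for 8 h, then exposed to compound with nocodazole for 16 h. Mitotic entry was read as phospho-histone H3 (Ser10) by sandwich ELISA, with absorbance at 450 nm. EC50 came from four-parameter sigmoid fitting.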

[1] = Homo sapiens, Mia Paca-2 cells (entries marked *)

| Ki (CHK1 (kinase domain)) [nM] | EC50 (Mia Paca-2 cells; [1]) [nM] | EC50 (Mia Paca-2 cells; Mia Paca-2 cells (entries marked *)) [nM] | EC50 (Mia Paca-2 cells; Homo sapiens, MIA PaCa-2, Mia Paca-2 cells (entries marked *)) [nM] | SMILES |
| --- | --- | --- | --- | --- |
| 85.6 | 1030 | – | – | C[C@@H]1CNC[C@@H]1Nc1cncc(-c2cnn3ccncc23)n1 [Example 253, N-[(3R,4R)-4-methylpyrrolidin-3-yl]-6-(pyrazolo[1,5-a]pyrazin-3-yl)pyrazin-2-amine, acetate salt] |
| 28.3 | 542 | – | – | Clc1cc2ncn(-c3cncc(N[C@@H]4CCCNC4)n3)c2cn1 [Example 254, 6-(6-chloro-3H-imidazo[4,5-c]pyridin-3-yl)-N-[(3R)-piperidin-3-yl]pyrazin-2-amine] |
| 34.5 | 597 | – | – | Clc1cc2c(cn1)ncn2-c1cncc(N[C@@H]2CCCNC2)n1 [Example 255, 6-(6-chloro-1H-imidazo[4,5-c]pyridin-1-yl)-N-[(3R)-piperidin-3-yl]pyrazin-2-amine] |
| 1.26 | 53.7 | – | – | CC(CO)(CO)COc1ccc2c(c1)ncn2-c1cncc(N[C@@H]2CCCNC2)n1 [Example 256, 2-methyl-2-{[(1-{6-[(3R)-piperidin-3-ylamino]pyrazin-2-yl}-1H-benzimidazol-5-yl)oxy]methyl}propane-1,3-diol] |
| 12.6 | 166 | – | – | CCOc1cc2c(cn1)ncn2-c1cncc(N[C@@H]2CCCNC2)n1 [Example 257, 6-(6-ethoxy-1H-imidazo[4,5-c]pyridin-1-yl)-N-[(3R)-piperidin-3-yl]pyrazin-2-amine] |
| 4.38 | 98.4 | – | – | CCOc1cc2ncn(-c3cncc(N[C@@H]4CCCNC4)n3)c2cn1 [Example 258, 6-(6-ethoxy-3H-imidazo[4,5-c]pyridin-3-yl)-N-[(3R)-piperidin-3-yl]pyrazin-2-amine] |
| 3.82 | – | 38.8 | – | CO[C@H]1CCNC[C@@H]1Nc1cncc(-c2cnc3ccccn23)n1 [Example 259, 6-(imidazo[1,2-a]pyridin-3-yl)-N-[(3S,4S)-4-methoxypiperidin-3-yl]pyrazin-2-amine] |
| 233 | – | – | 549 | CO[C@@H]1CCNC[C@H]1Nc1cncc(-c2cnc3ccccn23)n1 [Example 260, 6-(imidazo[1,2-a]pyridin-3-yl)-N-[(3R,4R)-4-methoxypiperidin-3-yl]pyrazin-2-amine (HCl salt)] |
| 14.9 | 37 | – | – | COC[C@@H]1C[C@@H](Nc2cncc(-c3cnn4ccccc34)n2)CN1 [Example 261, N-[(3R,5S)-5-(methoxymethyl)pyrrolidin-3-yl]-6-(pyrazolo[1,5-a]pyridin-3-yl)pyrazin-2-amine] |
| 78.7 | 548 | – | – | COC[C@@H]1C[C@@H](Nc2cncc(-c3cnc4ccc(F)cn34)n2)CN1 [Example 266, 6-(6-fluoroimidazo[1,2-a]pyridin-3-yl)-N-[(3R,5S)-5-(methoxymethyl)pyrrolidin-3-yl]pyrazin-2-amine] |
| 65.8 | 1480 | – | – | CCOc1ccc2ncn(-c3cncc(N[C@H]4CN[C@H](COC)C4)n3)c2c1 [Example 268, 6-(6-ethoxy-1H-benzimidazol-1-yl)-N-[(3R,5S)-5-(methoxymethyl)pyrrolidin-3-yl]pyrazin-2-amine] |
| 9.76 | 73 | – | – | CCOc1ccc2c(c1)ncn2-c1cncc(N[C@H]2CN[C@H](COC)C2)n1 [Example 269, 6-(5-ethoxy-1H-benzimidazol-1-yl)-N-[(3R,5S)-5-(methoxymethyl)pyrrolidin-3-yl]pyrazin-2-amine] |
| 118 | 4770 | – | – | Clc1cc2c(cn1)ncn2-c1cncc(N[C@@H]2CCNC2)n1 [Example 271, 6-(6-chloro-1H-imidazo[4,5-c]pyridin-1-yl)-N-[(3R)-pyrrolidin-3-yl]pyrazin-2-amine] |
| 40.8 | 2010 | – | – | c1ncc(-n2cnc3cnc(N4CCOCC4)cc32)nc1N[C@@H]1CCCNC1 [Example 272, 6-[6-(morpholin-4-yl)-1H-imidazo[4,5-c]pyridin-1-yl]-N-[(3R)-piperidin-3-yl]pyrazin-2-amine] |
| 21.3 | 91 | – | – | Cc1cn2c(-c3cncc(N[C@@H]4CCCN[C@@H]4C)n3)cnc2cn1 [Example 285, 6-(6-methylimidazo[1,2-a]pyrazin-3-yl)-N-[(2R,3R)-2-methylpiperidin-3-yl]pyrazin-2-amine] |

| SMILES | Ki (CHK1 (kinase domain)) [nM] | EC50 (Mia Paca-2 cells; [1]) [nM] | EC50 (Mia Paca-2 cells; Mia Paca-2 cells (entries marked *)) [nM] | EC50 (Mia Paca-2 cells; Homo sapiens, MIA PaCa-2, Mia Paca-2 cells (entries marked *)) [nM] |
| --- | --- | --- | --- | --- |
| COc1ccn2c(-c3cncc(N[C@H]4C5CCN(CC5)[C@H]4C)n3)cnc2c1 [Example 265, (2S,3S)-N-[6-(7-methoxyimidazo[1,2-a]pyridin-3-yl)pyrazin-2-yl]-2-methyl-1-azabicyclo[2.2.2]octan-3-amine] | 5.37 | 244 | – | – |
